Read-outs that look alike come from different tables or passages of the source.
Experiments:
[1] = tested on: locomotor activity in mice; test: Locomotor stimulant activity in mice; format: in vivo; details: for Time course of locomotor stimulant effect after injection: 30-min period at the start of each of four hours after administration
DAT = DAT (Rattus norvegicus, UniProt P23977); test: DAT binding in rat brain membranes
SERT = SERT (Rattus norvegicus, UniProt P31652); test: SERT binding in rat brain membranes; details: SERT versus DAT and NET binding
SERT, sequence (P31652 whole entry): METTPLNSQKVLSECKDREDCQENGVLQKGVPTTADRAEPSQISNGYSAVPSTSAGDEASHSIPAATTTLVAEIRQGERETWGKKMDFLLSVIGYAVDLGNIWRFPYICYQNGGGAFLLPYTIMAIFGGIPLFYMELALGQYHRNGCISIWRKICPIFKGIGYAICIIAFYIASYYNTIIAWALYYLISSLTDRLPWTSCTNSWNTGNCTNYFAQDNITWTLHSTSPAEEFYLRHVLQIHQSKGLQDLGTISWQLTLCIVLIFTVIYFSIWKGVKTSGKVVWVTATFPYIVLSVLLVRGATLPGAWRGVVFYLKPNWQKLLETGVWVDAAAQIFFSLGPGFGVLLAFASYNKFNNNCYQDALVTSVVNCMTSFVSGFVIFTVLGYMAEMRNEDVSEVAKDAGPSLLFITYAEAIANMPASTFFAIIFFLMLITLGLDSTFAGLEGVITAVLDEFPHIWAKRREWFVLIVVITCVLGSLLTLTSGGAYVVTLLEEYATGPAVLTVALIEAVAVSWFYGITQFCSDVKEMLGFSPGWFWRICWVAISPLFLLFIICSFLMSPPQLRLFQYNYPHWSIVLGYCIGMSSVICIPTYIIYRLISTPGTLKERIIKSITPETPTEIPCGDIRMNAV

DAT, sequence (P23977 whole entry): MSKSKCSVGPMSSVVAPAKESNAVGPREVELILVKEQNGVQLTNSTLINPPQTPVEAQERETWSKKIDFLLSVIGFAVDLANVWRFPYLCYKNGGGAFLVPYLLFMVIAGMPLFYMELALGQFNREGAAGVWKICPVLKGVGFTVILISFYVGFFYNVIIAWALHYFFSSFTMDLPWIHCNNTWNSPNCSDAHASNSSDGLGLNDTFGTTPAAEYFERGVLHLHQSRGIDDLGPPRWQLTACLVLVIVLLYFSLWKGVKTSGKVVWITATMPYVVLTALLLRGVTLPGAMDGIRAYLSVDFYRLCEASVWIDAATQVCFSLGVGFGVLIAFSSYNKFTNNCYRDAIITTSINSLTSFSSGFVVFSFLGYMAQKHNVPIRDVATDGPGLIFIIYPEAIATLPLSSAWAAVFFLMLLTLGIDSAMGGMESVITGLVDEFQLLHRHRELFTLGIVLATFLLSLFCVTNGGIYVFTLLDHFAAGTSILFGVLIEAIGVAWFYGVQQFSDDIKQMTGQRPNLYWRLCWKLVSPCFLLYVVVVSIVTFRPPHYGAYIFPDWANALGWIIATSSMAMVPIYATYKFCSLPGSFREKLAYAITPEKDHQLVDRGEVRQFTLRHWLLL

NC(=O)C[S@+]([O-])C(c1ccccc1)c1ccccc1 [(+)-1]
Time course of locomotor stimulant effect after injection [1]: evident up to four hours after injection

[O-][S+](CCNCCCc1ccccc1)C(c1ccccc1)c1ccccc1 (stereo not shown) [9a]
DAT binding affinity, comparison in words (DAT): most potent DAT analogue in the series

CN(C)CC[S+]([O-])C(c1ccc(Cl)cc1)c1ccc(Cl)cc1 (stereo not shown) [9d]
Transporter selectivity in words (SERT): SERT-selective

NC(=O)C[S+]([O-])C(c1ccccc1)c1ccccc1 (racemic) [(±)-1, 2-[(diphenylmethyl)sulfinyl]acetamide]
Time course of locomotor stimulant effect after injection [1]: evident up to four hours after injection

NC(=O)C[S@@+]([O-])C(c1ccccc1)c1ccccc1 [(−)-1]
Time course of locomotor stimulant effect after injection [1]: evident up to four hours after injection | DAT binding affinity, comparison in words (DAT; rat brain membranes, within the series): slightly higher affinity than the S

COC(=O)[C@H]1[C@@H](OC(=O)c2ccccc2)C[C@@H]2CC[C@H]1N2C [cocaine]
Effect on locomotor activity (horizontal activity counts) ([1]; after injection, 6 mice per point, maximal effect compared with cocaine): greatest among the drugs

Reference: article PMC3041981 (ACS medicinal chemistry letters, 2010)
